The target of test [1] is MtMetAP1a (Mycobacterium tuberculosis, UniProt P9WK21). The test is described as follows: MtMetAP1a coupled enzyme assay. The class given is biochemical. The conditions noted are these: for IC50: IC50 (µM), MtMetAP 1a, 200 nM enzyme; for Inhibition of MtMetAP1a (in words): both metalloforms (Co2+, Mn2+).
Test [2] deals with MtMetAP1c (Mycobacterium tuberculosis, UniProt P9WK19). The test is described as follows: MtMetAP1c coupled enzyme assay. The class given is biochemical. The conditions noted are these: for IC50: IC50 (µM), MtMetAP 1c, 100 nM enzyme.
MtMetAP1c, sequence (P9WK19 whole entry): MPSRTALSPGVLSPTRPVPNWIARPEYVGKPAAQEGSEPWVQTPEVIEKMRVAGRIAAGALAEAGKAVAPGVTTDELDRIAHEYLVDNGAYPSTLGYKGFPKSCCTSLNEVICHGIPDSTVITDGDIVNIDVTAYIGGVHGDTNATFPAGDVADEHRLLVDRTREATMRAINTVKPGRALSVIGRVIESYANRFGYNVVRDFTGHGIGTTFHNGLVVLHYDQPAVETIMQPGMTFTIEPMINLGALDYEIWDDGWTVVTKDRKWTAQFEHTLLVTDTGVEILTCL
Setting [3] is: Co2+, Co2+ cofactor (10 µM CoCl2).
Where [4] appears, read: Mn2+, Mn2+ cofactor (10 µM MnCl2).

Here are results for 21 compounds from PMC3495175 (Bioorganic & medicinal chemistry, 2012).

MtMetAP1a, sequence (P9WK21 whole entry): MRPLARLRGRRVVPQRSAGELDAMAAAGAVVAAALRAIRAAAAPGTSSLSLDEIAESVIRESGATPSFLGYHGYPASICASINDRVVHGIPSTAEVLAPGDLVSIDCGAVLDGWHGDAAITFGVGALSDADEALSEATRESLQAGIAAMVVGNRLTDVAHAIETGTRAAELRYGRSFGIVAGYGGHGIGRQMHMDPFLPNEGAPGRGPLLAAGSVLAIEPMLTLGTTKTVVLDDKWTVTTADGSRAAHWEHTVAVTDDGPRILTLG

Turning to `COc1ccc(-c2csc(N/C=N\O)n2)cc1OC` [4m], the IC50 in test [1] (setting [3]) and in test [1] (setting [4]) was over 20 µM in each case. Moreover, the “Inhibition of MtMetAP1c (in words)” value in test [2] is “moderate potency”.

For the compound `CCCCCCCCC(=O)Nc1nc2c(s1)CCc1ccccc1-2` [3q, reference compound], the IC50 in test [1] (setting [3]), in test [1] (setting [4]), in test [2] (setting [3]) and in test [2] (setting [4]) was over 50 µM each time.

Take `COc1ccc2c(c1)CCc1sc(N)nc1-2` [3o, reference compound]: the IC50 in test [1] (setting [3]), in test [1] (setting [4]), in test [2] (setting [3]) and in test [2] (setting [4]) was over 50 µM each time.

For `COc1ccc2c(c1)OCc1sc(N/C=N\O)nc1-2` [4g], the “Inhibition of MtMetAP1a (in words)” value in test [1] is on record as “moderate inhibition”. The “Inhibition of MtMetAP1c (in words)” value in test [2] is “did not inhibit”. The IC50 in test [2] (setting [3]) and in test [2] (setting [4]) was over 50 µM in each case.

As for `COc1cc2c(cc1OC)-c1nc(N/C=N\O)sc1CC2` [4e], the IC50 (usually the concentration at which inhibition is half-maximal) in test [2] (setting [4]) was over 50 µM.

For `COc1ccc2c(c1)CCc1sc(/N=C/c3ccccc3O)nc1-2` [3v], the IC50 in test [1] (setting [3]), in test [1] (setting [4]), in test [2] (setting [3]) and in test [2] (setting [4]) was over 50 µM each time.

Compound `COc1ccc2c(c1)-c1nc(NC=NO)sc1CC2` [4b, N'-hydroxy-N-(8-methoxy-4H,5H-naphtho[1,2-d]thiazol-2-yl)methanimidamide] returned an IC50 in test [1] (setting [4]) of over 50 µM.

Regarding `O/N=C\Nc1nc2c(s1)CCc1cc3c(cc1-2)OCO3` [4f], the IC50 in test [1] (setting [4]) is over 20 µM.

On to `COc1ccc2c(c1)Cc1sc(N/C=N\O)nc1-2` [4l], for which the IC50 in test [1] (setting [3]), in test [1] (setting [4]), in test [2] (setting [3]) and in test [2] (setting [4]) was over 50 µM throughout.

Take `COc1ccc2c(c1)CCc1sc(/N=C/c3ccco3)nc1-2` [3t]: the IC50 in test [1] (setting [3]), in test [1] (setting [4]), in test [2] (setting [3]) and in test [2] (setting [4]) was over 50 µM each time.

The compound `CN(C)/C=N/c1nc2c(s1)CCc1ccccc1-2` [3a] yielded an IC50 in test [2] (setting [4]) of over 50 µM.

`COc1ccc2c(c1)CCc1sc(NC(C)=O)nc1-2` [3p, reference compound]: the IC50 in test [1] (setting [3]), in test [1] (setting [4]), in test [2] (setting [3]) and in test [2] (setting [4]) was over 50 µM each time.

Regarding `COc1ccc2c(c1)CCc1sc(N/C=N\O)nc1-2` [4c, N'-hydroxy-N-(7-methoxy-4H,5H-naphtho[1,2-d]thiazol-2-yl)methanimidamide], the IC50 in test [1] (setting [4]) and in test [2] (setting [4]) was over 50 µM in each case.

`O/N=C\Nc1nc2c(s1)CCCc1cc3c(cc1-2)OCO3` [4j] returned an IC50 in test [1] (setting [4]) of over 50 µM.

As for `CCCCCCCCC(=O)Nc1nc2c(s1)CCc1cc(OC)ccc1-2` [3r, reference compound], the IC50 in test [1] (setting [3]), in test [1] (setting [4]), in test [2] (setting [3]) and in test [2] (setting [4]) was over 50 µM each time.

In the case of `Nc1nc2c(s1)CCc1ccccc1-2` [3n, reference compound], the IC50 in test [1] (setting [3]), in test [1] (setting [4]), in test [2] (setting [3]) and in test [2] (setting [4]) was over 50 µM each time.

With `COc1ccc2c(c1)CCc1sc(NC(=O)[C@H](C)O)nc1-2` [3s, (S)-2-Hydroxy-N-(7-methoxy-4H,5H-naphtho[1,2-d]thiazol-2-yl)propanamide], the half-maximal inhibitory concentration (IC50) in test [1] (setting [3]), in test [1] (setting [4]), in test [2] (setting [3]) and in test [2] (setting [4]) was over 50 µM each time.

Take `COc1ccc2c(c1)OC(c1ccccc1)c1sc(N/C=N\O)nc1-2` (stereo not shown) [4i]: the “Inhibition of MtMetAP1a (in words)” value in test [1] was “moderate inhibition”. For the same compound, the “Inhibition of MtMetAP1c (in words)” value in test [2] was “did not inhibit”. Further, the IC50 in test [2] (setting [3]) and in test [2] (setting [4]) was over 50 µM throughout.

Take `O/N=C\Nc1nc2c(s1)COc1cc3c(cc1-2)OCO3` [4h]: in test [1] (setting [4]), the IC50 was over 10 µM.

Consider `COc1ccc2c(c1)CCc1sc(NCc3ccco3)nc1-2` [3u, N-(Furan-2-ylmethyl)-7-methoxy-4H,5H-naphtho[1,2-d]thiazol-2-amine], for which the IC50 in test [1] (setting [3]), in test [1] (setting [4]), in test [2] (setting [3]) and in test [2] (setting [4]) was over 50 µM each time.

Take `O/N=C\Nc1nc2c(s1)CCc1ccccc1-2` [4a]: the IC50 in test [1] (setting [4]) and in test [2] (setting [4]) was over 50 µM throughout.
